# According to patent US7544690B2, “MCH receptor antagonists” (Taisho Pharmaceutical Co., Ltd., priority 2001, dated 2009):
# Structures can show the parent of a compound that is named as a salt.
# Target: T1, non-endogenous version of the MCH receptor (MCH-IC3-SST2) (Homo sapiens, UniProt Q99705, A240I/A242V/I247R/L249K/M235V/P241R/Q244S/R234K/R245S/R248K/R250S/R253K/S243G/S246K/T236K/T251E/V239G)
# T1 construct: creating a MCH-IC3-SST2 mutation (see); expressed in transfected cells; cultured with 0.5 mg/ml G418, so I infer a stably transfected line
# Assay: FLIPR/FDSS6000 functional assay: intracellular Ca2+ changes evoked by MCH
# Assay type: cell-based
# Conditions: antagonist activity; 50 nM of MCH; transient changes in [Ca2+]i monitored by FLIPR or FDSS
# Source text: Subsequently, a functional based assay was used to confirm the lead hits, referred to as FLIPR™ (the Fluorometric Imaging Plate Reader) and FDSS6000™ (Functional Drug Screening System). This assay utilized a non-endogenous version of the MCH receptor, which was created by swapping the third intracellular loop of the MCH receptor with that of the SST2 receptor (see Example 2(B)(2) of patent application Ser. No. 09/826,509).
# The FLIPR and FDSS assays are able to detect intracellular Ca^2+ concentration in cells, which can be utilized to assess receptor activation and determine whether a candidate compound is an, for example, antagonist, inverse agonist or agonist to a Gq-coupled receptor. The concentration of free Ca^2+ in the cytosol of any cell is extremely low, whereas its concentration in the extracellular fluid and endoplasmic reticulum (ER) is very high. Thus, there is a large gradient tending to drive Ca^2+ into the cytosol across both the plasma membrane and ER. […]
# To confirm the lead hits identified using the [^35S]GTPγS assay, Fluorometric Imaging Plate Reader system was used to allow for rapid, kinetic measurements of intracellular fluorescence in 96 well microplates (or 384 well microplates). Simultaneous measurements of fluorescence in all wells can be made by FLIPR or FDSS6000™, every second with high sensitivity and precision. […]
# T1 sequence (Q99705 1-353 with the stated changes): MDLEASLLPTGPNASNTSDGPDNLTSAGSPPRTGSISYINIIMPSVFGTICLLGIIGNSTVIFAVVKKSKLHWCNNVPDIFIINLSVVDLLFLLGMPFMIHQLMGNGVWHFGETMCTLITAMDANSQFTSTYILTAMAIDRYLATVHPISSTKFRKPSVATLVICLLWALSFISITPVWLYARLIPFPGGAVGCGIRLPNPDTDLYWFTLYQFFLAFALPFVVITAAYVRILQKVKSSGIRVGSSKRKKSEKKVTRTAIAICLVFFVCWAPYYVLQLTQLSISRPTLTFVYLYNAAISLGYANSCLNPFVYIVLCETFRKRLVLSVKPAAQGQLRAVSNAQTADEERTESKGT
row,IC50 [nM],SMILES
1,6,"CN(C)c1nc(N[C@H]2CC[C@@H](CNCc3ccc(Br)cc3OC(F)(F)F)CC2)nc2ccccc12 [Example 41, cis-N^2-{4-[(4-Bromo-2-trifluoromethoxy-benzylamino)-methyl]-cyclohexyl}-N^4,N^4-dimethyl-quinazoline-2,4-diamine dihydrochloride]"
2,19,"CN(C)c1nc(N[C@H]2CC[C@@H](CNCc3ccccc3OC(F)(F)F)CC2)nc2ccccc12 [Example 42, cis-N^4,N^4-Dimethyl-N^2-{4-[(2-trifluoromethoxy-benzylamino)-methyl]-cyclohexyl}-quinazoline-2,4-diamine dihydrochloride]"
